Data on 24 molecules can be found in patent US7923465B2, “Cannabinoid receptor ligands, pharmaceutical compositions containing them, and process for their preparation” (priority 2005, dated 2011).

Data set [1] addresses hCB2 (Homo sapiens, UniProt P34972). Description: In vitro binding assay using hCB2-CHO membranes, [3H]-CP-55,940 displacement (Protocol IV). Also on record: expressed in transfected cells; host or cells: CHO (hCB2-CHO, generated in-house). Particulars: 1 h, read-out: % Displacement Protocol IV. On the procedure: IV. Protocol for In Vitro Assay Using hCB2-CHO Membranes:
In this assay, [^3H]-CP-55,940 was used as the radioligand to bind human CB2 receptor expressed on the membranes from CHO cells (hCB2-CHO cell line was generated in-house) which can be displaced by unlabeled ligands having affinity to the CB2 receptor.
The assay was performed according to the modified method of Ross et al., 1999 (Br. J. Pharmacol. 128, 735-743). The reaction was set up in a total volume of 200 μl in PEI (0.2%) precoated Millipore GFB filter plates. 1 mM stocks of test compounds were prepared in DMSO and tested at a final concentration of 300 nM. The non-specific binding was determined by 0.5 μM CP-55, 940. The total reaction mixture contained Tris-BSA buffer (50 mM Tris, 5 mM MgCl2, 1 mM EDTA, pH 7.4 with 0.1% BSA), unlabelled CP-55, 940 (0.5 μM) or test samples, [^3H]-CP-55, 940 (0.75 nM) and 25-50 μg of human CB2 receptor preparation. The assay mixture (with or without the test compound) was incubated at 30° C. for 1 hour. The reaction was stopped by rapid filtration under vacuum and the radioactivity on the filters was measured by liquid scintillation counting.
The percent (%) displacement by a test ligand was calculated by comparing the specific bound values.

The mark [2] stands for this setting: hCB2-CHO membranes, [3H]-CP-55,940 displacement.

Where two headings read alike, the source gives them in different places.

hCB2, sequence (P34972 whole entry): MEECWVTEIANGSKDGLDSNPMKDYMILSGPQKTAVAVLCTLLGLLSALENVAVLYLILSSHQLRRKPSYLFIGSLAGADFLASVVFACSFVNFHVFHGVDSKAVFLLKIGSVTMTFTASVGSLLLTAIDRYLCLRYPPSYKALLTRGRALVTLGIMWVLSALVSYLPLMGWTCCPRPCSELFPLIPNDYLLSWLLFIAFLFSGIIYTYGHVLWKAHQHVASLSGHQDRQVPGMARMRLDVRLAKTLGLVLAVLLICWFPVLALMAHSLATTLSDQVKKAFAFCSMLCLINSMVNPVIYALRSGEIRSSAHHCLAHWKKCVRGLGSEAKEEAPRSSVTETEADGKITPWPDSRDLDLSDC

On to `C[C@@H](NC(=O)c1nn(-c2ccc(F)cc2F)c2c1C1CC3CC(C1)CC2C3)c1ccccc1` [Example 147, N(7)-(R-1-phenylethyl)-5-(2,4-difluorophenyl)-5,6-diazatetracyclo[7.3.1.1^3,11.0^4,8]tetradeca-4(8),6-diene-7-carboxamide], for which the melting point (usually the temperature of the solid-liquid transition) lay within 123 to 128 °C. Moreover, in data set [1], the inhibition at 0.3 µM was determined as 37.1%.

With `O=C(NC1C2CC3CC(C2)CC1C3)c1nn(-c2ccc(F)cc2)c2c1C1CCC2C1` (centres unmarked) [Example 281, N5-(Adamantan-2-yl)-3-(4-fluorophenyl)-3,4-diazatricyclo[5.2.1.0^2,6]deca-2(6),4-diene-5-carboxamide], the melting point is 196 to 198 °C. Also, the inhibition at 0.3 µM in data set [1] is 97.1%.

Consider `CCC(CC)(NC(=O)c1nn(-c2ccc(F)cc2F)c2c1C1CCC2C1)c1ccccc1` (centres unmarked) [Example 299, N5-(1-Ethyl-1-phenylpropyl)-3-(2,4-difluorophenyl)-3,4-diazatricyclo[5.2.1.0^2,6]deca-2(6),4-diene-5-carboxamide], for which the melting point was in the range of 45 to 48 °C. Besides, the inhibition at 0.3 µM in data set [1] came to 77.6%.

For the molecule `CC(C)(NC(=O)c1nn(-c2ccc(F)cc2F)c2c1C1CCC2c2ccccc21)c1ccccc1` (centres unmarked) [Example 509, N12-(1-Methyl-1-phenylethyl)-10-(2,4-difluorophenyl)-10,11-diazatetracyclo[6.5.2.0^2,7.0^9,13]pentadeca-2,4,6,9(13),11-pentaene-12-carboxamide], the melting point was in the range of 175 to 178 °C. Also, in data set [1], the inhibition at 0.3 µM is 67.2%.

`COC(=O)[C@H](NC(=O)c1nn(-c2ccc(F)cc2F)c2c1C1CCC2(C)C1(C)C)c1ccccc1` (stereo partly drawn) [Example 409, Methyl (2R)-2-[1-(2,4-difluorophenyl)-7,8,8-trimethyl-4,5,6,7-tetrahydro-1H-4,7-methano-indazole-3-carboxamido]-2-phenylethanoate]: the melting point was in the range of 107 to 109 °C. In data set [1] (setting [2]), the inhibition at 0.3 µM stood at 65.3%.

`CC(C)(NC(=O)c1nn(-c2ccc(F)cc2F)c2c1C1CC3CC(C1)CC2C3)c1ccccc1` [Example 148, N(7)-(1-Methyl-1-phenylethyl)-5-(2,4-difluorophenyl)-5,6-diazatetracyclo[7.3.1.1^3,11.0^4,8]tetradeca-4(8),6-diene-7-carboxamide] gave a melting point of 150 to 152 °C. In data set [1], the inhibition at 0.3 µM is 79.2%.

Turning to `O=C(NC1(c2ccccc2)CC1)c1nn(-c2ccc(F)cc2F)c2c1C1CCC2C1` (centres unmarked) [Example 308, N5-(1-phenylcyclopropyl)-3-(2,4-difluorophenyl)-3,4-diazatricyclo[5.2.1.0^2,6]deca-2(6),4-diene-5-carboxamide], the melting point amounted to 90 °C. Further, the inhibition at 0.3 µM in data set [1] is 86.6%.

For `CC(C)(NC(=O)c1nn(-c2ccc(F)cc2)c2c1C1CC3CC(C1)CC2C3)c1ccccc1` [Example 157, N(7)-(1-Methyl-1-phenylethyl)-5-(4-fluorophenyl)-5,6-diazatetracyclo[7.3.1.1^3,11.0^4,8]tetradeca-4(8),6-diene-7-carboxamide], the melting point lay in the range of 180 to 182 °C. Besides, the inhibition at 0.3 µM in data set [1] amounted to 88.5%.

With `CCC(C)(C)NC(=O)c1nn(-c2ccc(F)cc2F)c2c1C1CCC2CC1` [Example 802, N(5)-(tert-Pentyl)-3-(2,4-difluorophenyl)-3,4-diazatricyclo[5.2.2.0^2,6]undeca-2(6),4-diene-5-carboxamide], the melting point lay within 102 to 105 °C. For the same molecule, the inhibition at 0.3 µM in data set [1] worked out at 100%.

As for `CC(C)(NC(=O)c1nn(-c2ccc(F)cc2F)c2c1C1CC3CC(C1)CC2C3)c1ccccc1Cl` [Example 153, N7-[1-(2-Chlorophenyl)-1-methylethyl]-5-(2,4-difluorophenyl)-5,6-diazatetracyclo[7.3.1.1^3,11.0^4,8]tetradeca-4(8),6-diene-7-carboxamide], the melting point was 145 to 147 °C. For the same molecule, in data set [1] (setting [2]), the inhibition at 0.3 µM turned out to be 99.5%.

The molecule `CC12CCC(C1)C(C)(C)C2NC(=O)c1nn(-c2ccc(F)cc2F)c2c1C1CCC2C1` (centres unmarked) [Example 296, N(3)-(1,3,3-Trimethylbicyclo[2.2.1]hept-2-yl)-1-(2,4-difluorophenyl)-4,5,6,7-tetrahydro-1H-4,7-methano-indazole-3-carboxamide] returned a melting point of 114 to 117 °C. Besides, in data set [1], the inhibition at 0.3 µM is 95.9%.

The molecule `O=C(NC12CC3CC(CC(O)(C3)C1)C2)c1nn(-c2ccc(F)cc2F)c2c1C1CC3CC(C1)CC2C3` [Example 156, N7-(3-Hydroxyadamantan-1-yl)-5-(2,4-difluorophenyl)-5,6-diazatetracyclo[7.3.1.1^3,11.0^4,8]tetradeca-4(8),6-diene-7-carboxamide] gave a melting point of 240 to 243 °C. Further, the inhibition at 0.3 µM in data set [1] was determined as 89.3%.

Take `CC12CCC(C1)C(C)(C)C2NC(=O)c1nn(-c2ccc(F)cc2)c2c1C1CC3CC(C1)CC2C3` (centres unmarked) [Example 159, N7-(1,3,3-Trimethylbicyclo[2.2.1]hept-2-yl)-5-(4-fluorophenyl)-5,6-diazatetracyclo[7.3.1.1^3,11.0^4,8]tetradeca-4(8),6-diene-7-carboxamide]: the melting point fell in the range of 139 to 141 °C. The inhibition at 0.3 µM in data set [1] was 97.7%.

With `O=C(NCC1CCCO1)c1nn(-c2ccc(F)cc2F)c2c1C1CCC2C1` (centres unmarked) [Example 322, N(3)-(Tetrahydro-2-furanylmethyl)-1-(2,4-difluorophenyl)-4,5,6,7-tetrahydro-1H-4,7-methano-indazole-3-carboxamide], the melting point lay in the range of 91 to 93 °C. In addition, the inhibition at 0.3 µM in data set [1] was found to be 43.4%.

Turning to `CC1(NC(=O)c2nn(-c3ccc(F)cc3F)c3c2C2CCC3C2)C2CC3CC(C2)CC1C3` (centres unmarked) [Example 310, N5-(2-Methyl-2-adamantyl)-3-(2,4-difluorophenyl)-3,4-diazatricyclo[5.2.1.0^2,6]deca-2(6),4-diene-5-carboxamide], the melting point was 60 °C. In addition, the inhibition at 0.3 µM in data set [1] is 94.2%.

The molecule `CC(C)(NC(=O)c1nn(-c2ccc(F)cc2)c2c1C1CCC2C1)c1ccccc1` (centres unmarked) [Example 282, N5-(1-Methyl-1-phenylethyl)-3-(4-fluorophenyl)-3,4-diazatricyclo[5.2.1.0^2,6]deca-2(6),4-diene-5-carboxamide] had a melting point of 119 to 122 °C. In addition, the inhibition at 0.3 µM in data set [1] was determined as 92.3%.

As for `CC12CCC(c3c(C(=O)NC45CC6CC(CC(C6)C4)C5)nn(-c4ccc(F)cc4F)c31)C2(C)C` (centres unmarked) [Example 405, N(3)-(Adamantan-1-yl)-1-(2,4-difluorophenyl)-7,8,8-trimethyl-4,5,6,7-tetrahydro-1H-4,7-methano-indazole-3-carboxamide], the melting point fell in the range of 162 to 165 °C. Further, in data set [1], the inhibition at 0.3 µM is 87.9%.

`O=C(NCc1ccc(F)cc1F)c1nn(-c2ccc(Cl)cc2)c2c1C1CC3CC(C1)CC2C3` [Example 114, N(7)-(2,4-Difluorobenzyl)-5-(4-chlorophenyl)-5,6-diazatetracyclo[7.3.1.1^3,11.0^4,8]tetradeca-4(8),6-diene-7-carboxamide] showed a melting point of 185 °C. For the same molecule, in data set [1], the inhibition at 0.3 µM came out at 31.7%.

In turn, `O=C(NCc1ccc(Cl)cc1)c1nn(-c2ccc(F)cc2F)c2c1C1CCC2C1` (centres unmarked) [Example 298, N5-(4-Chlorobenzyl)-3-(2,4-difluorophenyl)-3,4-diazatricyclo[5.2.1.0^2,6]deca-2(6),4-diene-5-carboxamide] yielded a melting point of 121 to 125 °C. For the same molecule, the inhibition at 0.3 µM in data set [1] (setting [2]) turned out to be 11.2%.

For `CC12CCC(c3c(C(=O)NNc4ccccc4F)nn(-c4ccc(Cl)cc4Cl)c31)C2(C)C` (centres unmarked) [Example 402, N(3)-[(2-Fluorophenyl)amino]-1-(2,4-Dichlorophenyl)-7,8,8-trimethyl-4,5,6,7-tetrahydro-1H-4,7-methano-indazole-3-carboxamide], the melting point was 72 to 80 °C. Further, the inhibition at 0.3 µM in data set [1] (setting [2]) came to 2.66%.

`C[C@@H](NC(=O)c1nn(-c2ccc(F)cc2F)c2c1C1CCC2C1)c1ccccc1` (some centres unmarked) [Example 293, N(3)-(R-1-phenylethyl)-1-(2,4-difluorophenyl)-4,5,6,7-tetrahydro-1H-4,7-methano-indazole-3-carboxamide] returned a melting point of 40 to 45 °C.

The molecule `CN(NC(=O)c1nn(-c2ccc(Cl)cc2Cl)c2c1C1CCC2C1)c1ccccc1Cl` (centres unmarked) [Example 258, N(3)-[N-(2-Chlorophenyl)-N-methylamino]-1-(2,4-dichlorophenyl)-4,5,6,7-tetrahydro-1H-4,7-methano-indazole-3-carboxamide] came in with a melting point of 121 to 124 °C.

In turn, `O=C(NCC1CCCCC1)c1nn(-c2ccc(F)cc2F)c2c1C1CCC2C1` (centres unmarked) [Example 291, N(3)-(Cyclohexylmethyl)-1-(2,4-difluorophenyl)-4,5,6,7-tetrahydro-1H-4,7-methano-indazole-3-carboxamide] gave a melting point of 94 to 97 °C.

Take `CN(NC(=O)c1nn(-c2ccc(Cl)cc2Cl)c2c1C1CCC2C1)c1ccc(Cl)cc1Cl` (centres unmarked) [Example 261, N(3)-[(2,4dichlorophenyl)-N-methylamino]-1-(2,4-dichlorophenyl)-4,5,6,7-tetrahydro-1H-4,7-methano-indazole-3-carboxamide]: the melting point is 135 to 138 °C.
